Source: patent publication US20140220000A1, “MHC ENGAGEMENT AND CLIP MODULATION FOR THE TREATMENT OF DISEASE” (Scott & White Healthcare, priority 2011, published 2014)

Experiments:
CRL-5822 cells [1] = experiment: Viability counts of CRL-5822 cells after CpG, MKR.4 and Anti MHC Class II treatment (Example 2); type: cell-based; details: CpG 1 ug/mL, MKR.4 2.5 ug/mL, Anti MHC Class II 5 ug/mL, 24 hours after antibody
Experimental: CRL-5822 were Prepared as Follows: • Removed the media from a flask of CRL-5822 using a sterile glass pipet and vacuum • Added 1.5 mL of accutase to the flask and placed in incubator for 20 minutes • Washed with 3 mL of PBS • Transferred all to a sterile 15 mL conical tube • Centrifuged for 5′ @ 1000 rpm • Removed supernatant with sterile glass pipet and vacuum • Resuspended in 3 mL of PBS • Performed a hemacytometer count indicating: 1.14*10^6 cells total of CRL-5822 cells • 1.14*10^6/8 wells+2 wells for culture maintenance=10 wells • 1.14*10^6/10 wells=[…] cells per well • Centrifuged the 3 mL of cell suspension for 5′ at 1000 rpm • Resuspended pellet in 10 mL of 10% FBS RPMI • 1 mL of this was added to 2 wells in a 12-well plate added 1 mL of fresh 10% FBS RPMI to each well to bring the total volume up to 2 mL.
(§1) 8 wells were set up for the experiment for each cell type (CRL-5822 and C57BL/6) with no treatment, with CpG, MKR.4 peptide, with MKR.4 peptide+CpG and with or without addition of purified Anti Class-II (HLA-DR,DP,DQ) treatment in the amounts listed below.
CRL-5822 • CpG:(x) (1 mg/mL stock)=(1 ug/mL) (2 mL)x=2 ul • MKR.4: (x) (5 mg/mL stock)=(2.5 ug/mL) (2 mL) x=1 ul • Anti MHC Class II: Treat at 5 ug/mL; Stock is at 1 mg/mL; (x) (1 mg/mL)=(5 ug/mL) (2 mL); x=10 μl/well
(§2) CpG was administered to activate the cells and induce CLIP expression. MKR.4 was added to select wells 24 hours after cell activation. The cells were incubated with MKR.4 for 2 hours. Then fresh media with or without Anti MHC Class II was added. 24 hours after Anti MHC Class II was added to the wells viability counts were performed.

WITT cells = experiment: Hemacytometer viability counts of WITT cells after CpG, MKR.4 and anti-class II treatment (Example 3); type: cell-based, human; details: 24 hours after anti-class II
Experimental: 0.59*10^6 cells/mL*5 mL=[…] of WITT cells total were used. The cells were centrifuged at 1000 rpm for 5 minutes and the pellet was resuspended in 9 mL of WITT media. 1 mL of this cell suspension was added to each of […] and a culture flask. Another 2 mL of WITT media was added to each well in the 12 well plate to bring the total volume up to 3 mL. Another 9 mL was added to the T-25 culture flask to bring that total volume up to 10 mL. The plate and flask were placed in the incubator to allow adherence overnight.
(§3) CpG was administered to activate the cells and induce CLIP expression. 15 uL of 1 mg/mL CpG was added into each CpG treated well. MKR.4 was added to select wells 24 hours after cell activation. The cells were incubated with 3 uL of 5 mg/mL stock MKR.4 in DMSO for 2 hours. Then fresh media with or without Anti MHC Class II was added (5 ul/well of stock at 1 mg/mL). 24 hours after Anti MHC Class II was added to the wells viability counts were performed.

C57BL/6 splenocytes = experiment: Viability counts of C57BL/6 splenocytes after CpG, MKR.4 and Anti MHC Class II treatment (Example 2); type: cell-based, mouse; details: CpG 5 ug/mL, MKR.4 5 ug/mL, Anti MHC Class II 5 ug/mL, 24 hours after antibody
Experimental: C57BL/6 were Prepared as Follows: • A spleen from a C57BL/6 mouse was placed in a cell strainer in a petri dish with 6 mL of PBS • The spleen was mashed to produce a cell suspension • The PBS splenocyte cell suspension was transferred into a labeled 15 mL conical tube and centrifuged for 5 minutes at 1000 rpm • The pellet was resuspended in 1 mL of PBS • Geys was prepared to lyse the red blood cells • 7 mL of DI H20; • 0.5 mL of Geys B • 0.5 mL of Geys C • weighed out […] of NH4Cl • Mixed the […] of NH4Cl with 2 mL of Geys A • Transferred the dissolved solution to a 15 mL conical tube with the H20, Geys B, and Geys C • 3 mL of the Geys solution was added to the 1 mL of PBS cell suspension, mixed well and placed on ice for 1 minute (frequently inverted solution in tube on ice during the 1 minute) • The mixture was centrifuged for 5 minutes at 1000 rpm, washed with 5 mL of PBS, centrifuged for 5 minutes at 1000 rpm and resuspended in 10 mL of PBS • A hemacytometer count was performed: 99.0*10^6 cells total (9.9*10^6 cells/mL) plate 4*10^6 cells per well*8 wells=32 million; 32*10^6/9.9*10^6=3.23 mL of this suspension needed to obtain 32*10^6 cells • Centrifuged 3.23 mL of the suspension for 5 minutes at 1000 rpm and resuspended the pellet in 8 mL of 5% FBS RPMI • 1 mL of suspension was added to each well (12-well plate) • Added another 2 mL of 5% FBS RPMI to each well to bring the final volume up to 3 mL
as §1
CpG: (x) (1 mg/mL stock)=(5 ug/mL) (3 mL) x=15 ul
MKR.4: (x) (5 mg/mL stock)=(5 ug/mL) (3 mL) x=3 ul
Anti MHC Class II: Treat at 5 ug/mL; Stock is at 1 mg/mL; (x) (1 mg/mL)=(5 ug/mL) (3 mL); x=15 ul/well
as §2

H69 cells = experiment: Hemacytometer viability counts of H69 cells after CpG, MKR.4 and anti-class II treatment (Example 3); type: cell-based, human; details: 24 hours after anti-class II
Experimental: Based on cell counts 500,000 H69 cells per well were set up in a 6 well plate-4.0*10^6/2.95*10^6=1.36 mL. The 1.36 mL was added to a new 15 mL conical tube and centrifuged for 5 minutes at 1000 rpm. The pellet was resuspended in 8 mL of H69 media and 1 mL of cell suspension was added to each well. 2 mL of H69 media was added to each well to bring the total volume/well up to 3 mL and the plates were placed in an incubator.
as §3

MCF7 cells = experiment: Viability counts of MCF7 cells after B-estradiol treatment (Example 5); type: cell-based, human; details: 10 nM B-estradiol, about 19 hours after treatment
Experimental: (§4) MCF7 (ATCC (cat# HTB-22)) and MCF7-ADR were grown in 10% FBS RPMI (Gibco RPMI 1640 media cat #21870076) supplemented with Fetal Bovine Serum, L-Glutamine, […], Hepes Buffer, Sodium Pyruvate, and Gentamicin). 1.07*10^6MCF7 cells were plated per well in 2 wells. […] ADR cells were plated per well in 2 wells. The cells were treated with B-estradiol from Sigma (Cat# E2758-250 mg, Lot#110M0138V). In order to prepare a 10 nM final concentration 27.238 mg of B-estradiol was weighed under the hood with a sterile weigh boat and spatula and dissolved in 1 mL of DMSO to make a 0.1M stock, which was then diluted twice: • 1:1000 dilution (1 ul of the 0.1M stock to 999 ul PBS) • 1:100 dilution (10 ul of the 1:000 dilution to 990 ul PBS) 20 ul of the 1:100 diluted solution was added to a final volume of 2 mL per treatment well. The MCF7 and MCF7 ADR were harvested about 19 hours after treatment. The cells were counted and viability is shown below.

MCF7 ADR cells = experiment: Viability counts of MCF7 ADR cells after B-estradiol treatment (Example 5); type: cell-based, human; details: 10 nM B-estradiol, about 19 hours after treatment
Experimental: as §4

B cells from C57B/6 mice = experiment: Cell death of B cells isolated from C57B/6 mice (Example 6, FIG. 6A); type: cell-based, mouse; details: C57B/6 B cells stimulated with CpG 48 hours, MKR.4 5 μg/mL 1 hour, anti-MHCII 2.5 μg/mL, 24 hours
Experimental: (§5) B cells were isolated from the spleens 12 week old male C57B/6 or CLIP−/− (Invariant Chain deficient) mice (Jackson Labs) using the Miltenyi Biotech B cell isolation kit according to the manufacturer's directions. Cells were incubated with or without CpG-ODN (1 mg/mL SEQ ID NO 9: 5′-[…]-3′, purchased from Invivogen) for 48 hours followed by treatment with 5 μg/mL MKR.4 (5 mg/mL, SEQ ID NO 8: ANS GFR IMA VLA SGG QY). Cells were incubated with MKR.4 for 1 hour and then washed followed by treatment with 2.5 μg/mL anti-MHCII (IA/IE, BD Bioscience). 24 hours after anti-MHCII treatment cells were analyzed for cell death using Acridine Organge/propidium iodide staining measured on the Cellometer (Nexcelom), propidium iodide and foreword Vs. side scatter staining measured on a BD FACS Canto II flow cytometer (BD Bioscience). Data was analyzed using FlowJo software (TreeStar).

[2] = system: B cells from CLIP−/− (Invariant Chain deficient) mice; experiment: Cell death of B cells isolated from CLIP-/- mice (Example 6, FIG. 6B); type: cell-based, mouse; details: MKR.4 5 μg/mL, anti-MHCII 2.5 μg/mL, 24 hours
Experimental: as §5

CRL-5822 cells [3] = experiment: Viability counts of CRL-5822 cells after LPS, MKR.4 and Anti MHC Class II treatment (Example 1); type: cell-based; details: LPS 1 ug/mL, MKR.4 2.5 ug/mL, Anti MHC Class II 5 ug/mL, 24 hours after antibody
Experimental: The media was removed from a flask of CRL-5822 using a sterile glass pipet and vacuum and 1.5 mL of accutase was added to the flask and placed in incubator for 20 minutes. The cells were washed with 3 mL of PBS and transferred to a sterile 15 mL conical tube and centrifuged for 5 minutes @ 1000 rpm. The supernatant was removed with sterile glass pipet and vacuum and the pellet resuspended in 5 mL of PBS. A cell count was performed using the TC-10 automated counter and 10 ul of cell suspension+10 ul of trypan blue was loaded into disposable counting slide and put in the TC-10. The following count was made: Live: 3.54*10^4 cells/mL*5 mL=177,000 cells total & 177,000/9 wells (8 wells in experiment+1 to maintain culture)=19,666 cells/well (flask).
The 5 mL of cell suspension was centrifuged for 5′ at 1000 rpm, the pellet was resuspended in 9 mL of 10% FBS RPMI. 1 mL of the cell suspension was added to a T-25 flask that had 4 mL of media in it and placed in the incubator. After culture 1 mL of the cell suspension was added to each well (8 wells in a labeled 24 well plate). A fresh vial of MKR.4 was resuspended in sterile DMSO. 7 mg of peptide was used to make a 5 mg/mL stock (7 mg/mL=5 mg/mL=1.4 mL of DMSO). The peptide was added into 1.4 mL of DMSO, under the hood to maintain sterility. Once all of the peptide was dissolved, 200 ul aliquots were made. […]

| Molecule | Total Dead (CRL-5822 cells [1]) | Total Live (CRL-5822 cells [1]) | Dead (WITT cells) | Live (WITT cells) | Total Dead (C57BL/6 splenocytes) | Total Live (C57BL/6 splenocytes) | Dead (H69 cells) | Live (H69 cells) | Dead (MCF7 cells) | Live (MCF7 cells) | Dead (MCF7 ADR cells) | Live (MCF7 ADR cells) | percent change in cell death (B cells from C57B/6 mice) | percent change in cell death [2] | Total Dead (CRL-5822 cells [3]) | Total Live (CRL-5822 cells [3]) |
| --- | --- | --- | --- | --- | --- | --- | --- | --- | --- | --- | --- | --- | --- | --- | --- | --- |
| 5′-tcgtcgttttgtcgttttgtcgtt-3′ [CpG] | Total Dead: 0.07 *10^6 | Total Live: 0.35 * 10^6 | 0.13*10^6 | 0.94*10^6 | Total Dead: 0.08 *10^6 | Total Live: 1.25 * 10^6 | Dead: 0.40*10^6 | Live: 1.65*10^6 |  |  |  |  |  |  |  |  |
| C[C@]12CC[C@@H]3c4ccc(O)cc4CC[C@H]3[C@@H]1CC[C@@H]2O [B-Estradiol, B-estradiol] |  |  |  |  |  |  |  |  | 0.11*10^6 | 0.50*10^6 | 0.07*10^6 | 0.47*10^6 |  |  |  |  |
| ANS GFR IMA VLA SGG QY (ANSGFRIMAVLASGGQY) [MKR.4] | Total Dead: 0.08 *10^6 | Total Live: 0.24 * 10^6 | 0.038*10^6 | 0.93*10^6 | Total Dead: 0.10 *10^6 | Total Live: 0.44 * 10^6 | Dead: 0.28*10^6 | Live: 1.46*10^6 |  |  |  |  | restores the increase in cell death | no effect on the cell death caused by the MHC class II antibody | Total Dead: 0.07 *10^6 | Total Live: 0.32 * 10^6 |
